The text below walks through data of the Kinase Knowledgebase extract (Sharma et al. 2016).

“And” between values parts separate entries of the source, which are not always exact repeats. Equal values may be shown once.

In the first assay the target is PIK3CD (Human) (UniProt O00329). Put plainly: Inhibition of PIK3CD Kinase Activity (Scintillation Proximity Assay).
Chain of PIK3CD (Human) (O00329 whole entry, looked up): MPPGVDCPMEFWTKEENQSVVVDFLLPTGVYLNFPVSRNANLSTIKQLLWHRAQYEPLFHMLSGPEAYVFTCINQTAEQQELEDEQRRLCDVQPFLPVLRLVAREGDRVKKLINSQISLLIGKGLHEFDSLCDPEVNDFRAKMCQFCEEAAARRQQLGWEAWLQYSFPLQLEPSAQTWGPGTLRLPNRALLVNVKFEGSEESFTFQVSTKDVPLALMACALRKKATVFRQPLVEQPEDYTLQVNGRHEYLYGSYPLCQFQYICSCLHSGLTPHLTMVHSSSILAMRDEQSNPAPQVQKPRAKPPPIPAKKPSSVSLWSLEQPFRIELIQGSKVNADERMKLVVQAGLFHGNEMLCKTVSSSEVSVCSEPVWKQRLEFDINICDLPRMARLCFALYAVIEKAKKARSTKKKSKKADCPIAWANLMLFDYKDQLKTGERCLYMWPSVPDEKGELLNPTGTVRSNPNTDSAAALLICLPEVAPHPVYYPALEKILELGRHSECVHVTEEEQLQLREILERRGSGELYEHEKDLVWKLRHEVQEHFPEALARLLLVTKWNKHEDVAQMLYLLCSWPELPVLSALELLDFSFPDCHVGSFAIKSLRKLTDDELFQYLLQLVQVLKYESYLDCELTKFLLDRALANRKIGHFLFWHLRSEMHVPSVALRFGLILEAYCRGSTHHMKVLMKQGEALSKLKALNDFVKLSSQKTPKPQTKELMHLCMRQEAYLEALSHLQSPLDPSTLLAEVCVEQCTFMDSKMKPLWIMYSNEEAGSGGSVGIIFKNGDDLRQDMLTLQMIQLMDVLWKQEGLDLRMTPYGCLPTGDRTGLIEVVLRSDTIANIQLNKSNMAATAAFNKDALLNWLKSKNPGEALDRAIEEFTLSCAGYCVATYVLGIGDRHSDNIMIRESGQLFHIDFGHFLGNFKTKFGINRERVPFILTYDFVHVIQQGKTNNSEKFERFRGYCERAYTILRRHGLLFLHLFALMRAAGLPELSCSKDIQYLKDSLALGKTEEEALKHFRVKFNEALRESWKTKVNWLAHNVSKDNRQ
As usually defined, the IC50 is the concentration that inhibits the measured activity by half. Take `Cc1csc2nc(C(C)Nc3ncnc4[nH]cnc34)c(-c3ccccc3Cl)c(=O)n12` (configuration not stated): the IC50 is 100 to 500 nM and < 50 nM.
Same read-out and setting: the value for `CC(Nc1ncnc2[nH]cnc12)c1nc2scc(C(F)(F)F)n2c(=O)c1-c1cccc(F)c1` (configuration not stated) was 50 to 100 nM.
With `CCC(Nc1ncnc2[nH]cnc12)c1nc2cccc(C)n2c(=O)c1-c1cc(F)cc(F)c1` (configuration not stated), the IC50 was in the range of 50 to 100 nM.
Still for that read-out and setting: then `CCC(Nc1ncnc2[nH]cnc12)c1nc2cccc(C)n2c(=O)c1-c1ccccc1` (configuration not stated), with below 50 nM; and `CC(Nc1nc(N)nc2[nH]cnc12)c1nc2sccn2c(=O)c1-c1ccccc1` (configuration not stated), with 100 to 500 nM; and `Cc1csc2nc(C(C)Nc3ncnc4[nH]cnc34)c(-c3cccc(F)c3F)c(=O)n12` (configuration not stated), with 50 to 100 nM.
On the same count and under the same terms, then `Cc1cccc2nc(C(C)Nc3ncnc4[nH]cnc34)c(-c3cccc(F)c3)c(=O)n12` (configuration not stated), with below 50 nM; and `Cc1csc2nc(C(C)Nc3nc(N)nc4[nH]cnc34)c(-c3cncc(F)c3)c(=O)n12` (configuration not stated), with 50 to 100 nM; and `Cc1csc2nc(C(C)Nc3ncnc4[nH]cnc34)c(-c3ccccc3)c(=O)n12` (configuration not stated), with below 50 nM.
Still for that read-out and setting: then `Cc1csc2nc(C(C)Nc3ncnc4[nH]cnc34)c(-c3cncc(F)c3)c(=O)n12` (configuration not stated), with 100 to 500 nM; and `CCc1cccc2nc(C(C)Nc3ncnc4[nH]cnc34)c(-c3cc(F)cc(F)c3)c(=O)n12` (configuration not stated), with 100 to 500 nM.
`Cc1csc2nc(C(C)Nc3nc(N)nc4[nH]cnc34)c(-c3ccccc3F)c(=O)n12` (configuration not stated) came in with an IC50 below 50 nM.
On to `Cc1csc2nc(C(C)Nc3nc(N)nc4[nH]cnc34)c(-c3cccc(F)c3F)c(=O)n12` (configuration not stated), for which the IC50 was below 50 nM.
The compound `Cc1ccccc1-c1c(C(C)Nc2ncnc3[nH]cnc23)nc2cccc(C)n2c1=O` (configuration not stated) came in with an IC50 of 100 to 500 nM.
With `Cc1ccc(-c2c(C(C)Nc3ncnc4[nH]cnc34)nc3scc(C)n3c2=O)cc1` (configuration not stated), the IC50 fell in the range of 100 to 500 nM.
On the same count and under the same terms, the value for `Cc1cccc2nc(C(C)Nc3nc(N)nc4[nH]cnc34)c(-c3cccc(F)c3)c(=O)n12` (configuration not stated) was below 50 nM.
Still for that read-out and setting: then `Cc1csc2nc(C(C)Nc3ncnc4[nH]ccc34)c(-c3cc(F)cc(F)c3)c(=O)n12` (configuration not stated), with 100 to 500 nM; and `Cc1csc2nc(C(C)Nc3ncnc4[nH]cnc34)c(-c3cc(F)cc(F)c3)c(=O)n12` (configuration not stated), with below 50 nM; and `Cc1csc2nc(C(C)Nc3nc(N)nc4[nH]cnc34)c(-c3ccccc3Cl)c(=O)n12` (configuration not stated), with 100 to 500 nM and < 50 nM.
The same measure, in the same setting: the value for `Cc1cccc2nc(C(C)Nc3nc(N)nc4[nH]cnc34)c(-c3ccccc3)c(=O)n12` (configuration not stated) was below 50 nM; that for `Cc1cccc2nc(C(C)Nc3nc(N)nc4[nH]cnc34)c(-c3ccccc3Cl)c(=O)n12` (configuration not stated) was below 50 nM; that for `CC(Nc1nc(N)nc2[nH]cnc12)c1nc2ccccn2c(=O)c1-c1cc(F)cc(F)c1` (configuration not stated) was 100 to 500 nM.
`Cc1cccc2nc(C(C)Nc3ncnc4[nH]cnc34)c(-c3cccc(C#N)c3)c(=O)n12` (configuration not stated) returned an IC50 of 100 to 500 nM.
`Cc1csc2nc(C(C)Nc3nc(N)nc4[nH]cnc34)c(-c3cc(F)cc(F)c3)c(=O)n12` (configuration not stated) came in with an IC50 below 50 nM.
On the same count and under the same terms, the value for `Cc1cccc(-c2c(C(C)Nc3ncnc4[nH]cnc34)nc3cccc(C)n3c2=O)c1` (configuration not stated) was 100 to 500 nM.

For another assay the target is unchanged. Put plainly: Inhibition of PIK3CD Kinase Activity.
The compound `Cc1csc2nc(C(C)Nc3ncnc4[nH]cnc34)c(-c3cc(F)cc(F)c3)c(=O)n12` (configuration not stated) had a half-maximal inhibitory concentration (IC50) below 50 nM.

A further assay has the same target. Put plainly: Inhibition of PIK3CD Kinase Activity in Pfeiffer Cells.
The compound `Cc1cccc2nc(C(C)Nc3ncnc4[nH]cnc34)c(-c3cc(F)cc(F)c3)c(=O)n12` (configuration not stated) showed an IC50 of 50 to 100 nM.
The same measure, in the same setting: the value for `Cc1cccc2nc(C(C)Nc3ncnc4[nH]cnc34)c(-c3ccccc3Cl)c(=O)n12` (configuration not stated) was 50 to 100 nM; that for `Cc1cccc2nc(C(C)Nc3nc(N)nc4[nH]cnc34)c(-c3cccc(Cl)c3)c(=O)n12` (configuration not stated) was 50 to 100 nM; that for `Cc1csc2nc(C(C)Nc3ncnc4[nH]cnc34)c(-c3nccs3)c(=O)n12` (configuration not stated) was 50 to 100 nM.
On the same count and under the same terms, then `Cc1ccc(-c2c(C(C)Nc3ncnc4[nH]cnc34)nc3cccc(C)n3c2=O)cc1` (configuration not stated), with 50 to 100 nM; and `Cc1csc2nc(C(C)Nc3ncnc4[nH]cnc34)c(-c3ccccc3Cl)c(=O)n12` (configuration not stated), with 100 to 500 nM and < 50 nM.
Consider `CCC(Nc1ncnc2[nH]cnc12)c1nc2cccc(C)n2c(=O)c1-c1cccc(F)c1` (configuration not stated), for which the half-maximal inhibitory concentration (IC50) is 100 to 500 nM.
On the same count and under the same terms, the value for `COc1cccc(-c2c(C(C)Nc3ncnc4[nH]cnc34)nc3cccc(C)n3c2=O)c1` (configuration not stated) was 50 to 100 nM; that for `Cc1csc2nc(C(C)Nc3nc(F)nc4[nH]cnc34)c(-c3cc(F)cc(F)c3)c(=O)n12` (configuration not stated) was 50 to 100 nM; that for `Cc1csc2nc(C(C)Nc3ncnc4[nH]cnc34)c(-c3ccccc3F)c(=O)n12` (configuration not stated) was 50 to 100 nM.
As for `Cc1cccc2nc(C(C)Nc3ncnc4[nH]cnc34)c(-c3ccc(F)c(F)c3)c(=O)n12` (configuration not stated), the half-maximal inhibitory concentration (IC50) lay in the range of 500 to 1000 nM.
Still for that read-out and setting: the value for `CCc1cccc2nc(C(C)Nc3ncnc4[nH]cnc34)c(-c3ccc(F)cc3)c(=O)n12` (configuration not stated) was 100 to 500 nM; that for `Cc1csc2nc(C(C)Nc3ncnc4[nH]cnc34)c(-c3cscn3)c(=O)n12` (configuration not stated) was 50 to 100 nM; that for `CCC(Nc1ncnc2[nH]cnc12)c1nc2cccc(C)n2c(=O)c1-c1cn[nH]c1` (configuration not stated) was 500 to 1000 nM.
Same read-out and setting: then `Cc1cccc2nc(C(C)Nc3ncnc4[nH]cnc34)c(-c3cccc(Cl)c3)c(=O)n12` (configuration not stated), with 50 to 100 nM; and `Cc1csc2nc(C(C)Nc3ncnc4[nH]cnc34)c(-c3ccc(F)cc3)c(=O)n12` (configuration not stated), with 100 to 500 nM; and `Cc1cccc(-c2c(C(C)Nc3nc(N)nc4[nH]cnc34)nc3cccc(C)n3c2=O)c1` (configuration not stated), with 50 to 100 nM.
The compound `Cc1csc2nc(C(C)Nc3nc(N)nc4[nH]cnc34)c(-c3cc(F)cc(Cl)c3)c(=O)n12` (configuration not stated) came in with an IC50 below 50 nM.
The same measure, in the same setting: then `Cc1cccc2nc(C(C)Nc3nc(N)nc4[nH]cnc34)c(-c3cccc(C#N)c3)c(=O)n12` (configuration not stated), with 100 to 500 nM; and `Cc1csc2nc(C(C)Nc3ncnc4[nH]cnc34)c(-c3cc(F)cc(F)c3)c(=O)n12` (configuration not stated), with 100 to 500 nM.
On the same count and under the same terms, then `Cc1csc2nc(C(C)Nc3ncnc4[nH]cnc34)c(-c3cc(F)cc(Cl)c3)c(=O)n12` (configuration not stated), with 50 to 100 nM; and `Cc1csc2nc(C(C)Nc3nc(N)nc4[nH]cnc34)c(-c3ccccc3Cl)c(=O)n12` (configuration not stated), with < 50 nM and 100 to 500 nM.
Same read-out and setting: the value for `Cc1csc2nc(C(C)Nc3ncnc4[nH]cnc34)c(-c3cccc(Cl)c3)c(=O)n12` (configuration not stated) was 50 to 100 nM; that for `Cc1cccc2nc(C(C)Nc3ncnc4[nH]cnc34)c(-c3cccc(F)c3F)c(=O)n12` (configuration not stated) was 100 to 500 nM; that for `Cc1cccc2nc(C(C)Nc3nc(N)nc4[nH]cnc34)c(-c3ccc(C#N)cc3)c(=O)n12` (configuration not stated) was 500 to 1000 nM.
With `Cc1csc2nc(C(C)Nc3ncnc4[nH]cnc34)c(-c3cc(F)ccc3F)c(=O)n12` (configuration not stated), the IC50 is 50 to 100 nM.
The same measure, in the same setting: the value for `Cc1cccc2nc(C(C)Nc3ncnc4[nH]cnc34)c(-c3ccccc3F)c(=O)n12` (configuration not stated) was 100 to 500 nM; that for `Cc1cccc2nc(C(C)Nc3ncnc4[nH]cnc34)c(-c3ccccc3)c(=O)n12` (configuration not stated) was 50 to 100 nM; that for `Cc1cccc2nc(C(C)Nc3nc(N)nc4[nH]cnc34)c(-c3ccccc3F)c(=O)n12` (configuration not stated) was 50 to 100 nM.
Same read-out and setting: the value for `CCc1cccc2nc(C(C)Nc3nc(N)nc4[nH]cnc34)c(-c3cc(F)cc(F)c3)c(=O)n12` (configuration not stated) was below 50 nM.
On the same count and under the same terms, then `Cc1csc2nc(C(C)Nc3nc(N)nc4[nH]cnc34)c(-c3cc(F)cc(F)c3)c(=O)n12` (configuration not stated), with below 50 nM; and `Cc1csc2nc(C(C)Nc3nc(N)nc4[nH]cnc34)c(-c3cccc(Cl)c3)c(=O)n12` (configuration not stated), with below 50 nM; and `Cc1cccc2nc(C(C)Nc3ncnc4[nH]cnc34)c(-c3cc(F)ccc3F)c(=O)n12` (configuration not stated), with 50 to 100 nM.

A further assay shares this target. Description: Inhibition of PIK3CD Kinase Activity (AlphaScreen Assay). A general note: In Alpha technology, singlet oxygen from a donor bead excites a nearby acceptor bead.
As to `Cc1csc2nc(C(C)Nc3nc(N)nc4[nH]cnc34)c(-c3ccccc3)c(=O)n12` (configuration not stated), the IC50 is below 50 nM.
Same read-out and setting: the value for `CCC(Nc1ncnc2[nH]cnc12)c1nc2cccc(C)n2c(=O)c1-c1cccnc1F` (configuration not stated) was 100 to 500 nM.
On the same count and under the same terms, then `Cc1cccc2nc(C(C)n3cnc4c(N)ncnc43)c(-c3ccccc3)c(=O)n12` (configuration not stated), with 100 to 500 nM; and `Cc1csc2nc(C(C)Nc3ncnc4[nH]cnc34)c(-c3cc(F)cc(F)c3)c(=O)n12` (configuration not stated), with below 50 nM.
Same read-out and setting: the value for `CCC(Nc1ncnc2[nH]cnc12)c1nc2cccc(C)n2c(=O)c1-c1cncc(F)c1` (configuration not stated) was 100 to 500 nM; that for `Cc1csc2nc(C(C)Nc3ncnc4[nH]cnc34)c(-c3ccccn3)c(=O)n12` (configuration not stated) was 50 to 100 nM.
Turning to `Cc1csc2nc(C(C)Nc3nc(N)nc4[nH]cnc34)c(-c3cc(F)cc(F)c3)c(=O)n12` (configuration not stated), the IC50 is below 50 nM.
On the same count and under the same terms, then `Cc1csc2nc(C(C)Nc3nc(N)nc4[nH]cnc34)c(-c3cccc(F)c3)c(=O)n12` (configuration not stated), with below 50 nM.
